Conditions: Liquid

CCCCCCCCCCCCCC(=O)OCC [ethyl tetradecanoate]
viscosity [mPa·s]
Conditions	293.15 K	313.15 K	333.15 K	353.15 K
101.3 kPa, Falling or rolling sphere viscometry	4.73	2.96	2.03	1.48
101.3 kPa, quartz crystal resonator	4.73	2.96	2.03	1.48
10000 kPa, quartz crystal resonator	5.36	3.34	2.3	1.65
20000 kPa, Falling or rolling sphere viscometry	6.1	3.74	2.53	1.83
20000 kPa, quartz crystal resonator	6.08	3.71	2.54	1.84
30000 kPa, quartz crystal resonator	6.83	4.15	2.82	2.03
40000 kPa, Falling or rolling sphere viscometry	7.68	4.64	3.09	2.22
40000 kPa, quartz crystal resonator	7.68	4.63	3.13	2.24
50000 kPa, quartz crystal resonator	–	5.1	3.44	2.44
60000 kPa, Falling or rolling sphere viscometry	–	5.67	3.73	2.66
60000 kPa, quartz crystal resonator	–	5.67	3.76	2.66
70000 kPa, quartz crystal resonator	–	6.22	4.08	2.91
80000 kPa, Falling or rolling sphere viscometry	–	6.86	4.46	3.16
80000 kPa, quartz crystal resonator	–	6.89	4.48	3.14
90000 kPa, quartz crystal resonator	–	7.56	4.86	3.41
100000 kPa, Falling or rolling sphere viscometry	–	8.23	5.27	3.71
100000 kPa, quartz crystal resonator	–	8.14	5.25	3.66

CCCCCCCCCCCCCC(=O)OC [methyl tetradecanoate]
viscosity [mPa·s]
Conditions	303.15 K	313.15 K	333.15 K	353.15 K
101.3 kPa, Falling or rolling sphere viscometry	3.51	2.8	1.91	1.4
101.3 kPa, quartz crystal resonator	3.51	2.8	1.91	1.4
10000 kPa, quartz crystal resonator	3.95	3.15	2.14	1.57
20000 kPa, Falling or rolling sphere viscometry	4.43	3.5	2.37	1.72
20000 kPa, quartz crystal resonator	4.45	3.5	2.37	1.74
30000 kPa, quartz crystal resonator	4.95	3.91	2.61	1.92
40000 kPa, Falling or rolling sphere viscometry	5.51	4.31	2.89	2.08
40000 kPa, quartz crystal resonator	5.53	4.33	2.88	2.11
50000 kPa, quartz crystal resonator	6.11	4.79	3.16	2.29
60000 kPa, Falling or rolling sphere viscometry	–	5.24	3.47	2.47
60000 kPa, quartz crystal resonator	6.79	5.26	3.46	2.5
70000 kPa, quartz crystal resonator	–	5.74	3.76	2.71
80000 kPa, Falling or rolling sphere viscometry	–	6.31	4.11	2.9
80000 kPa, quartz crystal resonator	–	6.29	4.08	2.92
90000 kPa, quartz crystal resonator	–	–	4.46	3.14
100000 kPa, Falling or rolling sphere viscometry	–	7.54	4.82	3.38
100000 kPa, quartz crystal resonator	–	–	4.81	3.4

— the NIST ThermoML archive (doi:10.1021/acs.jced.5b00612)
